Laboratory results taken from patent publication US10351587B2, “Method of making and using 7α, 11β-dimethyl-17β-hydroxyestr-4-en-3-one 17-undecanoate” (The United States of America, as represented by the …, priority 2000, dated 2019).
Entries after “also recorded” stand apart in the source; their conditions may differ.

Tests used:
[1] = system: castrate Sprague-Dawley rats; test: Hershberger test, subcutaneous administration for seven days (ventral prostate weight); format: in vivo; settings: ventral prostate weight assay following subcutaneous administration; alcohol of G = 1.0 (assigned); value is for the free alcohol of the listed ester
Description: (§1) Immature (about 21-day-old) Sprague-Dawley rats were orchidectomized under anesthesia, and randomly assignee to groups of ten animals for each dose level of the active undergoing testing. Each active was dissolved in 10% ethanol/sesame oil and administered by gavage (oral) or subcutaneous injection each day for seven days beginning on the date of the orchidectomy. The animals were sacrificed 24 hours after the last dose, and the ventral prostate and seminal vesicles were excised, cleaned of fat and connective tissue, blotted on moist filter paper and weighed to the nearest 0.1 mg. Regression analysis was performed by conventional methods using a PROPHET data management system. Ventral prostate weight was used as the endpoint because it is the sensitive organ to androgenic stimulation.
as §1, with “by” for “by gavage (oral) or”, “mg. See, e.g., Hershberger, L. et al, Myotrophic Activity of 19-nortestosterone And Other Steroids Determined By Modified Levator And Muscle Method, Proc. Soc. Exptl. Biol. Med. 83 175-180 (1953).” for “mg.”, “system. See, e.g., Bliss, C., The Statistics of Bioassay (Academic Press, New York, 1952); Hollister, C., Nucleic Acids Res. 16 1873-75 (1988).” for “system.”

[2] = system: castrate Sprague-Dawley rats; test: Duration of activity after a single subcutaneous injection (ventral prostate weight over weeks, AUC); format: in vivo; settings: single subcutaneous injection; for AUC of ventral prostate weight (FIG. 5): 0.6 mg, n=5
Description: as §1, with “was” for “was dissolved in 10% ethanol/sesame oil and”, “by” for “by gavage (oral) or”
Except for testosterone enanthate, each active was formulated in two different carriers: (1) an aqueous suspension and (2) in sesame oil. Testosterone enanthate was formulated using the sesame oil carrier only, because it exists as a liquid at room temperature and could not therefore be formulated as an aqueous suspension.
The carrier used to provide the aqueous suspension was formulated as follows: 1 g benzyl alcohol, 0.5 g sodium carboxylethyl cellulose 50, 0.376 g disodium hydrogen phosphate dihydrate, 1.495 g sodium dihydrogen phosphate dihydrate, with water for injection (WFI) being added to bring volume of the carrier up to 100 ml.
Each formulation was prepared at a concentration of 0.6 mg/0.2 ml.
(§2) Immature (about 21-day-old) Sprague-Dawley rats were orchidectomized under anesthesia, and randomly assignee to groups of 40 or more. Animals received a single subcutaneous injection of 0.6 mg of each ester in 0.2 ml of an aqueous suspending carrier and/or oily carrier (10% ethanol/90% sesame oil or ethyl oleate) on the date of the orchidectomy. In cases where the ester was not solid at room temperature, 10% ethanol/sesame oil or ethyl oleate was used as the carrier. In this example, the carrier used to provide the aqueous suspension was formulated as follows: 1 g benzyl alcohol, 0.5 g sodium carboxylethyl cellulose 50, 0.376 g disodium hydrogen phosphate dihydrate, 1.495 g sodium dihydrogen phosphate dihydrate, with water for injection (WFI) being added to bring volume of the carrier up to 100 ml.
Five animals from each group were sacrificed at weekly or biweekly intervals, and the ventral prostate and seminal vesicles were excised, cleaned of fat and connective tissue, blotted on moist filter paper and weighed to the nearest 0.1 mg.
Ventral prostate weight was used as the endpoint because it is the sensitive organ to androgenic stimulation. Regression analysis was performed by conventional methods using the PROPHET data management system previously identified.
Immature (about 21-day-old) Sprague-Dawley rats were orchidectomized under anesthesia, and randomly assignee to groups of 40 or more. Animals received a single subcutaneous injection of 0.6 mg of the undecanoate in 0.2 ml of an aqueous suspending carrier and/or oily carrier (10% ethanol/90% sesame oil containing 5 mg/ml chlorobutanol as a preservative, or ethyloleate) on the date of the orchidectomy. The enanthate ester was formulated using the 10% ethanol/sesame oil or ethyloleate carrier as a first standard, with the 10% ethanol/sesame oil carrier used as a second standard.
In this example, the carrier used to provide the aqueous suspension was formulated as follows: 1 g benzyl alcohol, 0.5 g sodium carboxylethyl cellulose 50, 0.376 g disodium hydrogen phosphate dihydrate, 1.495 g sodium dihydrogen phosphate dihydrate, with water for injection (WFI) being added to bring volume of the carrier up to 100 ml.

[3] = Serum levels of the free alcohol after a single subcutaneous injection; format: in vivo, Sprague-Dawley rats; settings: single subcutaneous injection 0.6 mg in aqueous carrier, 10-week observation period
Description: as §2

SMILES: CCCC[C@H]1CC[C@H](C(=O)O[C@H]2CC[C@H]3[C@H]4[C@H]([C@@H](C)C[C@]23C)[C@H]2CCC(=O)C=C2C[C@H]4C)CC1 (relative stereo) [CDB-4386A, 7α,11β-Dimethyl-17β-hydroxy-4-estren-3-one 17β-trans-4-n-butylcyclohexane carboxylate]
- Androgenic Potency of Corresponding Alcohol [1]: 19.3
- Long-term androgenic activity (ventral prostate weight over time), in words [2]: most dramatic increase and maintenance of ventral prostate weight; also recorded: greatest AUC over the 10-week period
- AUC of ventral prostate weight (FIG. 5) ([2]; ASV (aqueous suspending vehicle)): 1390
- AUC of ventral prostate weight (FIG. 5) ([2]; S.O. (sesame oil)): 157
- Serum levels of the free alcohol (7α,11β-dimethyl-19-nortestosterone) [3]: highest levels of the free alcohol
